Tested on: human primary NOK
Experiment: Replicative senescence / cumulative population doublings
Type: cell-based
Conditions: in the presence of rapamycin; estimated
Procedure: NOK were plated in collagen coated LabTek chamber slides and treated with vehicle or 20 nM rapamycin for 3 days. Cells were then γ-irradiated or not, and further treated with vehicle or rapamycin for 24 h. For TUNEL assay cells were processed for staining immediately, for SA-β-gal cells were passed and assessed 4 days after plating. Apoptosis was detected using the CLICK-IT™ TUNEL ALEXA FLUOR™ 594 Imaging Assay (Life Technologies, Carlsbad, Calif.) and SA-β-gal activity was measured using the SA-β-gal kit (Cell Signaling Technology, Danvers, Mass.) according to the manufacturer's instructions. The proportion of positive cells was determined by fluorescence or transmission microscopy and quantified using ImageJ. Eight different fields containing approximately 60 cells each were quantified per condition. For the calculation of population doublings cells were cultured as described and treated with vehicle or 20 nM rapamycin. Population doublings were calculated every passage using the formula x=[log 10(NH/N1)]/log 10(2)] (Cristofalo et al., PNAS, 95, 10614-10619 (1998)), where N1 is the inoculum cell number and NH the cell harvest number. To yield the cumulated doubling doublings, the population doublings for each passage was calculated and then added to the population doubling levels of the previous passages.

Structure (SMILES): CO[C@H]1C[C@@H]2CC[C@@H](C)[C@@](O)(O2)C(=O)C(=O)N2CCCC[C@H]2C(=O)O[C@H]([C@H](C)C[C@@H]2CC[C@@H](O)[C@H](OC)C2)CC(=O)[C@H](C)/C=C(\C)[C@@H](O)[C@@H](OC)C(=O)[C@H](C)C[C@H](C)/C=C/C=C/C=C/1C [rapamycin]
- cells a single cell will give rise to before senescence: around 10^17 cells

— patent publication US9278090B2, “Methods of preventing the development of mucositis and related disorders” (The United States of America, as represented by the …, priority 2012, dated 2016)
